“Also recorded” adds a separate entry of the source. Like-named read-outs stand apart in the source and are kept apart here.
Tests used:
[1] = molecular target: recombinant extracellular portion of human Na+/K+-ATPase α1 subunit (Homo sapiens, UniProt P05023); assay: SPR (Biacore 3000) binding, α1 subunit
Procedure: (§1) The recombinant extracellular portion of human Na+/K+-ATPase α1 subunit (M1-M2, M3-M4, M5-M6, M7-M8 and M9-M10) was expressed as a His-fusion protein using Escherichia coli, and purified by affinity chromatography. […] The BamH I-Hind III fragment of the gene was subcloned into a pET-32b expression vector (Novagen) and transformed into E. coli BL21 (DE3) cells (Novagen). The BL21 transformants were cultivated in LB medium with ampicillin to an A600 nm of 0.8 at 37°C. Expression was induced by adding isopropyl β-D-thiogalactopyranoside (IPTG) to a final concentration of 10 mM, and incubated overnight at 20°C. The fusion protein containing a His-tag was isolated from the bacterial lysates by Ni^2+-chelation affinity chromatography using a Bio-Scale™ Mini Profinity™ IMAC Cartridge (Bio-Rad). Finally, the recombinant protein was desalted using a Bio-Scale™ Mini Bio-Gel P-6 Desalting Cartridge (Bio-Rad). The recombinant extracellular portions of the α2 and α3 subunits of human Na+/K+-ATPase were also expressed and purified using similar methods.
(§2) Briefly, for the SPR assay, the α1, α2 or α3 subunit protein was immobilized on a CM5 sensor chip as a ligand with N-ethyl-N’-(3-dimethylaminopropyl) carbodiimide (EDC) and N-hydroxysuccinimide (NHS) according to standard primary amine-coupling procedures. […] HBS-EP (10 mM HEPES, 150 mM NaCl, 3 mM EDTA, and 0.005% (v/v) surfactant P20, pH 7.4) was used as the running buffer. The equilibration of the baseline was performed by a continuous flow of HBS-EP through the chip surface for 1 to 2 h. The Biacore data were collected at 25°C with HBS-EP as the running buffer at a constant flow of 30 μL/min. […] The binding responses were recorded continuously in response units (RU) at a frequency of 1 Hz in sensorgrams and presented as a function of time.

A549 cells [2] = assay: MTT cell proliferation assay, A549; type: cell-based; conditions: Homo sapiens, read-out: IC50, cell viability (MTT)
Procedure: (§3) The human lung cancer A549, NCI-H460, NCI-H522 and NCI-H1299 cell lines were purchased from the Cell Resource Center of Shanghai Institutes for Biological Sciences, Chinese Academy of Sciences (Shanghai, P.R. China).
(§4) Cell proliferation was assessed using a colorimetric MTT assay as described previously [10]. […] After treatment, the viability of cells was evaluated by checking the absorbance at 570 nm.

[3] = tested on: porcine cortex Na+/K+-ATPase; assay: Na+/K+-ATPase activity (Pi liberated from ATP); type: biochemical; conditions: for inhibition of the activity of porcine cortex Na+/K+-ATPase: different concentrations, 1 h incubation
Procedure: The activity of Na+/K+-ATPase was determined by measuring the amount of inorganic phosphate (Pi) liberated from ATP, as described previously. Briefly, a commercial Na+/K+-ATPase from porcine cerebral cortex (Sigma-Aldrich, USA) was incorporated into a reaction mixture containing 1 mM ATP, 5 mM MgCl2, 80 mM NaCl, 20 mM KCl, and 40 mM Tris-HCl (pH 7.8). The enzymatic reaction was terminated by adding trichloroacetic acid after the incubation period (1 h). After centrifugation, the supernatant was diluted with deionized water and then the color development reagent provided by the QuantiChrom™ Phosphate Assay Kit (BioAssay Systems, USA) was added. After 30 min of incubation at room temperature, the color intensity was measured at 620 nm on GENIOS reader (TEACAN, Switzerland). The Na+/K+-ATPase energy transducing activity was expressed as μmol Pi liberated from ATP by 1 mg of Na+/K+-ATPase in 1 h.

caspase-3, PARP = assay: Western blot of caspase-3 activation and PARP cleavage; type: cell-based, human; conditions: A549 cells, 24 h, different concentrations
Procedure: Western blot assays were conducted as described previously. Briefly, the cellular protein samples were denatured by mixing with equal volume of 2 × sample loading buffer and then boiling at 100°C for 5 min. An aliquot (50 μg as protein) of the supernatant was loaded onto a 12% SDS gel, separated electrophoretically, and transferred to a Nitrocellulose membrane (Bio-Rad). After the membrane was incubated with 10 mM TBS with 20% Tween 20 and 5% dehydrated skim milk to block nonspecific protein binding, the membrane was incubated with primary antibodies overnight at 4°C. The primary antibodies used for detection of α1 and α3 subunit of Na+,K+-ATPase were rabbit polyclonal antibody against human ATP1A1 (55187, Proteintech, 1:1000) and ATP1A3 (sc-374050, Santa Cruz Biotechnology, 1:1000), respectively. Other primary antibodies including rabbit polyclonal antibody against human Src (#2109S, 1:1000), phosphor-Src(Tyr416) (#6943S, 1: 1000); PI3K p85 (#4257P, 1:1000), phosphor-PI3K p85(Tyr458)/p55(Tyr199) (#4228P, 1: 600), Akt (#9272, 1:1000), phosphor-Akt(Ser473) (#4060S, 1:800), Bax (#2772S, 1:1000), Pro-caspase-9 (#9502S, 1:800), Caspase-3 (#9662S, 1:800); PARP (#9542, 1:1000) and GAPDH (#2118, 1:1000) were all purchased from Cell Signaling Technology. […]

NCI-H460 cells = assay: MTT cell proliferation assay, NCI-H460; type: cell-based; conditions: Homo sapiens, NCI-H460, 72 h, read-out: IC50 values, inhibiting proliferation
Procedure: as §3, §4

A549 cells [4] = assay: Annexin V/PI flow cytometry analysis of apoptosis; type: cell-based, human; conditions: 24 h treatment
Procedure: Flow cytometric analysis of the level of apoptosis was conducted using Alexa Fluor 488 Annexin V & PI /Dead Cell Apoptosis Kit (Invitrogen) according to the manufacturer’s instructions. Briefly, after the 24 h treatment with BF or BF211 at different concentrations, the cells were collected, washed with PBS and resuspended in binding buffer. Then, the cells were incubated with Annexin V-FITC and propidium iodide for 15 min in the dark at room temperature, and flow cytometric analysis was conducted. Data analysis was performed with the CellQuest software.

A549 tumor xenografts = assay: Human A549 tumor xenograft in nude mice; type: in vivo, Balb/c-nu-nu mice; conditions: i.p., qd
Procedure: Male nude immunodeficient Balb/c-nu-nu mice, aged 6–7 weeks were purchased from the Shanghai Experimental Animal Center and housed in accordance with protocols approved by the Shanghai Institute of Materia Medica, Chinese Academy of Sciences. Generally, on day 0, A549 cells (8×10^6 cells) suspended in 0.1 mL of PBS were mixed with 0.1 mL Matrigel basement membrane matrix (BD Biosciences) and then inoculated s.c. in the right flank of each mouse. Tumors were allowed to reach 100–300 mm^3 in size before treatments were adminstered. In the animal experiment, the tumor size was measured every 3–4 days using calipers and the tumor volume was calculated using the standard formula, width^2×length/2. Body weight was measured daily.
Two experiments using nude mice with A549 tumor xenografts were conducted. In the first experiment, we tried to compare the anti-cancer effects of BF and BF211 at the same concentrations. Briefly, 12 days after inoculation, the mice were randomly divided into 6 groups (6 mice in each group) and began treatment with the vehicle control (natural saline, i.p., qd); a positive control (rapamycin, 10 mg/kg, i.v., once a week); BF at 0.8 mg/kg, i.p., qd; BF at 0.4 mg/kg for 7 days, which was then increased to 1.6 mg/kg for 9 days, i.p., qd; BF211 at 0.8 mg/kg, i.p., qd; BF211 at 0.4 mg/kg for 7 days, which was then increased to 1.6 mg/kg for 9 days, i.p., qd. In the second experiment, the anti-cancer effects of BF211 were determined at higher concentrations. Briefly, 15 days after inoculation, mice were randomly divided into 5 groups (10 mice in each group) and started treatment with the vehicle control (i.p., qd); a positive control (rapamycin, 10 mg/kg, i.v., once a week); BF211 at 2 mg/kg, i.p., qd; BF211 at 4 mg/kg, i.p., qd; BF211 at 6 mg/kg, i.p., qd. No mice died during this experimental period, and all animals were euthanized by CO2 inhalation at the end of the experiment.

A549 cells [5] = assay: Free intracellular Ca2+ level (Fluo-3 AM, flow cytometry); type: cell-based, human; conditions: 50 nM
Procedure: The level of intracellular free Ca2+ in A549 cells was determined using the fluorescent dye Fluo-3 AM (S1056, Beyotime Biotechnology, Shanghai, China), which can cross the cell membrane and be cleaved into Fluo-3 by intracellular esterase. […] After being exposed to 50 nM BF or BF211 for 0.5, 1, 10, 30, 60 and 180 min, the cells were harvested, washed twice with PBS, and then incubated with Fluo-3 AM (5 μM) in the dark at 37°C for 1 h. After washing twice with PBS to remove the remaining extracellular probe, the cells were submitted to flow cytometric analysis with an excitation wavelength of 488nm. The quantification was conducted using the FlowJo software program based on the mean values of the peak fluorescent intensity.

Src = assay: Western blot of Src activation (p-Src); type: cell-based, human; conditions: A549 cells, 50 nM
Procedure: Western blot assays were conducted as described previously. Briefly, the cellular protein samples were denatured by mixing with equal volume of 2 × sample loading buffer and then boiling at 100°C for 5 min. An aliquot (50 μg as protein) of the supernatant was loaded onto a 12% SDS gel, separated electrophoretically, and transferred to a Nitrocellulose membrane (Bio-Rad). After the membrane was incubated with 10 mM TBS with 20% Tween 20 and 5% dehydrated skim milk to block nonspecific protein binding, the membrane was incubated with primary antibodies overnight at 4°C. The primary antibodies used for detection of α1 and α3 subunit of Na+,K+-ATPase were rabbit polyclonal antibody against human ATP1A1 (55187, Proteintech, 1:1000) and ATP1A3 (sc-374050, Santa Cruz Biotechnology, 1:1000), respectively. Other primary antibodies including rabbit polyclonal antibody against human Src (#2109S, 1:1000), phosphor-Src(Tyr416) (#6943S, 1: 1000); PI3K p85 (#4257P, 1:1000), phosphor-PI3K p85(Tyr458)/p55(Tyr199) (#4228P, 1: 600), Akt (#9272, 1:1000), phosphor-Akt(Ser473) (#4060S, 1:800), Bax (#2772S, 1:1000), Pro-caspase-9 (#9502S, 1:800), Caspase-3 (#9662S, 1:800); PARP (#9542, 1:1000) and GAPDH (#2118, 1:1000) were all purchased from Cell Signaling Technology. After TBS washes, blots were then incubated with HRP-linked goat anti-rabbit IgG (#7074, 1:1000) secondary antibody for 2 h at room temperature at a 1:1000 dilution and then visualized using chemiluminescence (Pierce Biotechnology, Rockford, IL, USA).

NCI-H1299 cells = assay: MTT cell proliferation assay, NCI-H1299; type: cell-based; conditions: Homo sapiens; NCI-H1299, 72 h treatment; read-out: IC50 values, inhibiting proliferation
Procedure: as §3, §4

ICR mice [6] = conditions: single dose i.p., Bliss method
Procedure: (§5) Therefore, totally 180 mice were used in the study of acute toxicity. […] During the 3 h observation period and other monitoring time periods, animals found in a moribund condition (head and body lying flat on cage bedding with little or no response to stimuli) and animals showing severe pain or severe distress (agonal breathing, intermittent gasping or both) were humanely killed. […] At the end of the experiment, all surviving animals were euthanized by CO2 inhalation. […] The LD50 value was calculated according to the Bliss method.

NCI-H522 cells = assay: MTT cell proliferation assay, NCI-H522; type: cell-based; conditions: Homo sapiens; NCI-H522, 72 h treatment; read-out: IC50 values, inhibiting proliferation
Procedure: as §3, §4

[7] = molecular target: recombinant extracellular portion of human Na+/K+-ATPase α2 subunit (Homo sapiens, UniProt P50993); assay: SPR (Biacore 3000) binding, α2 subunit
Procedure: as §1, §2

[8] = molecular target: recombinant extracellular portion of human Na+/K+-ATPase α3 subunit (Homo sapiens, UniProt P13637); assay: SPR (Biacore 3000) binding, α3 subunit
Procedure: as §1, §2

caspase-3 = assay: Caspase-3 activity assay (Ac-DEVD-pNA); type: cell-based, human; conditions: A549 cells, 24 h, different concentrations
Procedure: The activity of caspase-3 was determined using a caspase-3 activity assay kit (C1115, Beyotime Biotechnology, Shanghai, China) according to the manufacturer's instructions. Briefly, after treatment with BF or BF211 at different concentrations for 24 h, the A549 cells were collected, washed with PBS and incubated with lysis buffer on ice for 15 min. After centrifugation at 2,000 g for 15 min at 4°C, the cell lysates were collected, and their protein concentrations were determined using the A280 method with a UV-Vis Spectrophotometer Q5000 (Quawell Technology, San Jose, CA, USA). Cell lysates (50 μg protein) were then added to reaction buffer containing the caspase-3 substrate Ac-DEVD-p-nitroanilide (2 mM) in 96-well microtiter plates and incubated at 37°C for 4 h. The caspase-3 activity in the samples was quantified by detecting the release of p-nitroanilide from Ac-DEVD-p-nitroanilide with a microplate spectrophotometer at 405 nm. The caspase-3 activity was expressed as the fold of enzyme activity in comparison with the control.

tumor cell lines = tested on: tumor cell lines; design: method as in PMID 26827628; conditions: broad spectrum of tumor cell lines; ref [8]; cited from earlier work
in vivo = conditions: ICR, mouse, ip
Procedure: as §5

ICR mice [9] = conditions: i.p., ref [14]; cited from earlier work
[10] = concentrations less than 2 mg/kg (0.8 mg/kg, or 0.4 then 1.6 mg/kg)

Sequence of recombinant extracellular portion of human Na+/K+-ATPase α2 subunit (P50993 with tags, fused parts or gaps): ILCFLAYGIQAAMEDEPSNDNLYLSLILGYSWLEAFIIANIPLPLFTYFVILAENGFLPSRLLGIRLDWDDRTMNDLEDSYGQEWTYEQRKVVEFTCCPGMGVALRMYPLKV
Sequence of recombinant extracellular portion of human Na+/K+-ATPase α3 subunit (P13637 with tags, fused parts or gaps): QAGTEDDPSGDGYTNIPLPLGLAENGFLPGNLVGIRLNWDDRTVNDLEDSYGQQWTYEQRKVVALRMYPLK

C[C@]12CC[C@H](OC(=O)NC3CCNCC3)C[C@H]1CC[C@@H]1[C@@H]2CC[C@]2(C)[C@@H](c3ccc(=O)oc3)CC[C@]12O [BF211]
kon ([1]; read-out: Association (ka)): 17700 M⁻¹ s⁻¹
koff ([1]; read-out: Dissociation (kd)): 0.0526 s⁻¹
Kd ([1]; α1, SPR, KD = kd/ka, read-out: Equilibrium dissociation (KD)): 2960 nM
IC50 (A549 cells [2]; 24 h treatment): 6.76 ± 0.41 nM
IC50 (A549 cells [2]; 48 h treatment): 4.01 ± 2.68 nM
inhibition of Na+/K+-ATPase activity compared with BF ([3]; at some concentrations, such as 0.1 μM): slightly weaker than BF
inhibition of the activity of porcine cortex Na+/K+-ATPase [3]: concentration-dependent
activation of caspase-3 and cleavage of PARP (caspase-3, PARP): stronger than that of BF at high concentrations
IC50 (NCI-H460 cells): 68 ± 6.91 nM
induction of apoptosis (A549 cells [4]): more strongly induced apoptosis than BF
effect on tumor growth (A549 tumor xenografts; 6 mg/kg): almost totally blocked; also recorded: almost totally inhibited
effect on growth of tumor xenografts (A549 tumor xenografts; 2, 4, and 6 mg/kg): concentration-dependent inhibitive effects
effect on growth of tumor xenografts (A549 tumor xenografts; 4 or 6 mg/kg): strongly inhibited
effect on tumor growth (A549 tumor xenografts; [10]): weak inhibitive effects
time of another (second) peak of intracellular Ca2+ level (A549 cells [5]): 1800 s
time of peak intracellular Ca2+ level (A549 cells [5]): 0.5 min
level of phosphorylated Src (p-Src) (Src; 1 h after treatment): significant increase
level of phosphorylated Src (p-Src) (Src; 3 h after treatment): significant increase
IC50 (NCI-H1299 cells): 40.1 ± 4.04 nM
LD5 (95% confidence) (ICR mice [6]; female mice): 12.03 mg/kg (10.04~14.41 mg/kg)
LD95 (95% confidence) (ICR mice [6]; female mice): 27.55 mg/kg (22.56~33.66 mg/kg)
LD5 (95% confidence) (ICR mice [6]; male mice): 9.52 mg/kg (7.81~11.61 mg/kg)
LD95 (95% confidence) (ICR mice [6]; male mice): 22.85 mg/kg (18.89~27.64 mg/kg)
IC50 (NCI-H522 cells): 48.3 ± 0.69 nM
kon ([7]; read-out: Association (ka)): 9820 M⁻¹ s⁻¹
koff ([7]; read-out: Dissociation (kd)): 0.0441 s⁻¹
Kd ([7]; α2, SPR, KD = kd/ka, read-out: Equilibrium dissociation (KD)): 4490 nM
kon ([8]; 25°C, 1:1 Langmuir model, read-out: Association (ka)): 30700 M⁻¹ s⁻¹
koff ([8]; 25°C, 1:1 Langmuir model, read-out: Dissociation (kd)): 0.116 s⁻¹
Kd ([8]; KD = kd/ka, read-out: Equilibrium dissociation (KD)): 3780 nM
enzyme activity of caspase-3 (caspase-3): significantly stronger than that of BF
IC50 values, anticancer activities (tumor cell lines): nanomolar level
LD50 (in vivo; female): 18.2 mg/kg
LD50 (in vivo; male): 14.8 mg/kg

C[C@]12CC[C@H](O)C[C@H]1CC[C@@H]1[C@@H]2CC[C@]2(C)[C@@H](c3ccc(=O)oc3)CC[C@]12O [BF, Bufalin, reference compound]
IC50 (A549 cells [2]; 48 h treatment): 10.2 ± 1.01 nM
inhibition of the activity of porcine cortex Na+/K+-ATPase [3]: concentration-dependent
activation of caspase-3 and cleavage of PARP (caspase-3, PARP): could induce the activation of caspase-3 and the cleavage of PARP
IC50 (NCI-H460 cells): 114 ± 11.2 nM
induction of apoptosis (A549 cells [4]): could induce apoptosis
effect on tumor growth (A549 tumor xenografts; [10]): weak inhibitive effects
time of peak intracellular Ca2+ level (A549 cells [5]): 0.5 min
level of phosphorylated Src (p-Src) (Src; 1 h after treatment): significant increase
IC50 (NCI-H1299 cells): 88.3 ± 11.9 nM
IC50 (NCI-H522 cells): 98.7 ± 2.76 nM
LD50 (ICR mice [9]): 2.2 mg/kg
enzyme activity of caspase-3 (caspase-3): increase in the activity of caspase-3

— paper PMC4961401 (PLoS ONE, 2016)
